By IC50 is commonly meant the concentration that gives 50% inhibition.

Each structure is given as a SMILES string.

This test in a line: Antagonist activity at PAR4 in human platelet-rich plasma assessed as inhibition of gamma-thrombin-induced platelet aggregation preincubated for 5 mins followed by gamma-thrombin stimulation.

Take `COc1cc(OCc2nc(-c3ccc(C(=O)N(C)C)cc3)sc2C)c2cc(-c3cn4nc(OC)sc4n3)oc2c1` [US9688695, 66]: the IC50 amounted to 2.1 nM. Consider `CSc1nn2cc(-c3cc4ccccc4o3)nc2s1` [US9862730, Example 1], for which the IC50 is 2600 nM.

Source of the values: BindingDB's records for doi:10.1016/j.ejmech.2020.112893 (China Pharmaceutical University, 2021).
